In PubChem BioAssay AID1259411 (Chemical Carcinogenesis Research Information System (CCRIS), 2018):
Active and inactive are the calls of the source. The rule behind the calls is not given here.

System: rodent carcinogenicity bioassays, tumor incidence
Experiment: CCRIS carcinogenicity studies
Method in brief: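 NCI-built, expert-reviewed records of carcinogenicity and related test outcomes (mutagenicity, tumor promotion/inhibition) compiled from published and report sources, historical span 1985-2011, not updated.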

**Q.** `C=C(Cl)Cl` was tested. Which carcinogen call (Species: FISH, Strain/Sex: SHASTA RAINBOW TROUT/MALE, FEMALE, Route: ORAL, Dose: 0, 2000 PPM IN DIET FOR 18 MO (STUDY DURATION: 18 MO)) did it give?
**A.** The carcinogen call was “inactive; negative”.

**Q.** What about the carcinogen call (Species: MOUSE, Route: INHALATION, Tumor Site: Type of Lesion: KIDNEY, LUNG, LIVER, Tumor Site: Type of Lesion: KIDNEY, LUNG, LIVER) of the same compound?
**A.** The carcinogen call was “active; positive”.

**Q.** What about the carcinogen call (Species: RAT, Strain/Sex: SPRAGUE-DAWLEY/FEMALE, Route: GAVAGE, Dose: 0, 0.5, 5, 10, 20 MG/KG BW IN OLIVE OIL 1/D 4-5 D/WK FOR 52-59 WK (STUDY DURATION: LIFETIME), Dose: 0, 0.5, 5, 10, 20 MG/KG BW IN OLIVE OIL 1/D 4-5 D/WK FOR 52-59 WK (STUDY DURATION: LIFETIME), Tumor Site: Type of Lesion: [BRAIN WAS ONLY SITE EVALUATED]) of the same compound?
**A.** The carcinogen call was “inactive; negative”.

**Q.** And the carcinogen call (Species: RAT, Strain/Sex: SPRAGUE-DAWLEY/FEMALE, Route: INHALATION, Dose: 0, 10, 25, 50, 100, 150 PPM IN AIR 4 HR/D 4-5 D/WK FOR 52 WK (STUDY DURATION: LIFETIME), Dose: 0, 10, 25, 50, 100, 150 PPM IN AIR 4 HR/D 4-5 D/WK FOR 52 WK (STUDY DURATION: LIFETIME), Tumor Site: Type of Lesion: [BRAIN WAS ONLY SITE EVALUATED])?
**A.** The carcinogen call was “inactive; negative”.

**Q.** What about the carcinogen call (Species: RAT, Strain/Sex: SPRAGUE-DAWLEY/FEMALE, Route: INHALATION, Dose: 0, 100 PPM 4 HR/D 5 D/WK FOR 7 WK THEN 7 HR/D 5 D/WK FOR 8 WK ADMINISTERED TO RAT EMBRYOS BEGINNING ON THE 12TH DAY OF G) of the same compound?
**A.** Its carcinogen call is “inactive; negative”.

**Q.** What about the carcinogen call (Species: RAT, Strain/Sex: SPRAGUE-DAWLEY/FEMALE, Route: INHALATION, Dose: 0, 100 PPM 4 HR/D 5 D/WK FOR 7 WK THEN 7 HR/D 5 D/WK FOR 97 WK ADMINISTERED TO BREEDER RATS (STUDY DURATION: 104 WK)) of the same compound?
**A.** Its carcinogen call is “inactive; negative”.

**Q.** What about the carcinogen call (Species: RAT, Strain/Sex: SPRAGUE-DAWLEY/FEMALE, Route: INHALATION, Dose: 0, 100 PPM 4 HR/D 5 D/WK FOR 7 WK THEN 7 HR/D 5 D/WK FOR 97 WK ADMINISTERED TO RAT EMBRYOS BEGINNING ON 12TH DAY OF GEST, Tumor Site: Type of Lesion: HEMATOPOIETIC SYSTEM: LEUKEMIA) of the same compound?
**A.** The carcinogen call was “active; positive”.

**Q.** And the carcinogen call (Species: RAT, Strain/Sex: SPRAGUE-DAWLEY/FEMALE, Route: ORAL, Dose: 0, 50, 100, 200 PPM IN DRINKING WATER FOR 2 YR (STUDY DURATION: 2 YR), Dose: 0, 50, 100, 200 PPM IN DRINKING WATER FOR 2 YR (STUDY DURATION: 2 YR))?
**A.** The carcinogen call was “inactive; negative”.

**Q.** What about the carcinogen call (Species: RAT, Strain/Sex: SPRAGUE-DAWLEY/MALE, Route: GAVAGE, Dose: 0, 0.5, 5, 10, 20 MG/KG BW IN OLIVE OIL 1/D 4-5 D/WK FOR 52-59 WK (STUDY DURATION: LIFETIME), Dose: 0, 0.5, 5, 10, 20 MG/KG BW IN OLIVE OIL 1/D 4-5 D/WK FOR 52-59 WK (STUDY DURATION: LIFETIME), Tumor Site: Type of Lesion: [BRAIN WAS ONLY SITE EVALUATED]) of the same compound?
**A.** The carcinogen call was “inactive; negative”.

**Q.** What about the carcinogen call (Species: RAT, Strain/Sex: SPRAGUE-DAWLEY/MALE, Route: INHALATION, Dose: 0, 10, 25, 50, 100, 150 PPM IN AIR 4 HR/D 4-5 D/WK FOR 52 WK (STUDY DURATION: LIFETIME), Dose: 0, 10, 25, 50, 100, 150 PPM IN AIR 4 HR/D 4-5 D/WK FOR 52 WK (STUDY DURATION: LIFETIME), Tumor Site: Type of Lesion: [BRAIN WAS ONLY SITE EVALUATED]) of the same compound?
**A.** Its carcinogen call is “inactive; negative”.

**Q.** And the carcinogen call (Species: RAT, Strain/Sex: SPRAGUE-DAWLEY/MALE, Route: INHALATION, Dose: 0, 100 PPM 4 HR/D 5 D/WK FOR 7 WK THEN 7 HR/D 5 D/WK FOR 8 WK ADMINISTERED TO RAT EMBRYOS BEGINNING ON THE 12TH DAY OF G)?
**A.** Its carcinogen call is “inactive; negative”.

**Q.** And the carcinogen call (Species: RAT, Strain/Sex: SPRAGUE-DAWLEY/MALE, Route: INHALATION, Dose: 0, 100 PPM 4 HR/D 5 D/WK FOR 7 WK THEN 7 HR/D 5 D/WK FOR 97 WK ADMINISTERED TO RAT EMBRYOS BEGINNING ON 12TH DAY OF GEST)?
**A.** Its carcinogen call is “inactive; negative”.

**Q.** And the carcinogen call (Species: RAT, Strain/Sex: SPRAGUE-DAWLEY/MALE, Route: ORAL, Dose: 0, 50, 100, 200 PPM IN DRINKING WATER FOR 2 YR (STUDY DURATION: 2 YR), Dose: 0, 50, 100, 200 PPM IN DRINKING WATER FOR 2 YR (STUDY DURATION: 2 YR))?
**A.** Its carcinogen call is “inactive; negative”.

**Q.** And the carcinogen call (Species: RAT, Strain/Sex: SPRAGUE-DAWLEY, Route: INHALATION, Tumor Site: Type of Lesion: MAMMARY GLAND: FIBROADENOMA, CARCINOMA)?
**A.** Its carcinogen call is “active; positive”.

**Q.** What does the source list for `O=C1c2ccccc2-c2ccc3c4c(ccc1c24)-c1ccccc1C3=O`?
**A.** carcinogen call (Species: MOUSE, Strain/Sex: B6C3F1/FEMALE, Route: ORAL, Dose: 0, 12500, 25000 PPM IN DIET, Dose: 0, 12500, 25000 PPM IN DIET): inactive; negative; carcinogen call (Species: MOUSE, Strain/Sex: B6C3F1/MALE, Route: ORAL, Dose: 0, 25000, 50000 PPM IN DIET, Dose: 0, 25000, 50000 PPM IN DIET, Tumor Site: Type of Lesion: LYMPHATIC SYSTEM: LYMPHOMA, LIVER: HEPATOCELLULAR CARCINOMA): active; positive; carcinogen call (Species: RAT, Strain/Sex: F344/FEMALE, Route: ORAL, Dose: 0, 3500, 7000 PPM IN DIET, Dose: 0, 3500, 7000 PPM IN DIET): inactive; negative; carcinogen call (Species: RAT, Strain/Sex: F344/MALE, Route: ORAL, Dose: 0, 3500, 7000 PPM IN DIET, Dose: 0, 3500, 7000 PPM IN DIET): inactive; negative

**Q.** For `Brc1c(Br)c(Br)c(Oc2c(Br)c(Br)c(Br)c(Br)c2Br)c(Br)c1Br`, which carcinogen call (Species: MOUSE, Strain/Sex: B6C3F1/FEMALE, Route: ORAL, Dose: 0, 25000, 50000 PPM IN DIET FOR 103 WK (STUDY DURATION: 103 WK), Dose: 0, 25000, 50000 PPM IN DIET FOR 103 WK (STUDY DURATION: 103 WK)) is on record?
**A.** Its carcinogen call is “inactive; negative”.

**Q.** And the carcinogen call (Species: MOUSE, Strain/Sex: B6C3F1/MALE, Route: ORAL, Dose: 0, 25000, 50000 PPM IN DIET FOR 103 WK (STUDY DURATION: 103 WK), Dose: 0, 25000, 50000 PPM IN DIET FOR 103 WK (STUDY DURATION: 103 WK), Tumor Site: Type of Lesion: LIVER: HEPATOCELLULAR ADENOMA OR CARCINOMA, THYROID GLAND: FOLLICULAR CELL ADENOMA OR CARCINOMA)?
**A.** Its carcinogen call is “equivocal”.

**Q.** What about the carcinogen call (Species: RAT, Strain/Sex: F344/FEMALE, Route: ORAL, Dose: 0, 25000, 50000 PPM IN DIET FOR 103 WK (STUDY DURATION: 103 WK), Dose: 0, 25000, 50000 PPM IN DIET FOR 103 WK (STUDY DURATION: 103 WK), Tumor Site: Type of Lesion: LIVER: NEOPLASTIC NODULE, NEOPLASTIC NODULE OR HEPATOCELLULAR CARCINOMA) of the same compound?
**A.** The carcinogen call was “active; positive”.

**Q.** And the carcinogen call (Species: RAT, Strain/Sex: F344/MALE, Route: ORAL, Dose: 0, 25000, 50000 PPM IN DIET FOR 103 WK (STUDY DURATION: 103 WK), Dose: 0, 25000, 50000 PPM IN DIET FOR 103 WK (STUDY DURATION: 103 WK), Tumor Site: Type of Lesion: LIVER: NEOPLASTIC NODULE, NEOPLASTIC NODULE OR HEPATOCELLULAR CARCINOMA)?
**A.** The carcinogen call was “active; positive”.

**Q.** Which carcinogen call (Species: MOUSE, Strain/Sex: B6C3F1/MALE, Route: INTRAPERITONEAL, Dose: 0, 1600 NMOL (TOTAL DOSE) ADMINISTERED IN DOSES OF 1/7 WITHIN 24 HR OF BIRTH, 2/7 AT 8 DAYS OF AGE AND 4/7 AT 15 DAYS OF, Tumor Site: Type of Lesion: LIVER: ADENOMA, CARCINOMA) does the source give for `Clc1c2ccccc2cc2c1ccc1ccccc12` here?
**A.** Its carcinogen call is “active; positive”.

**Q.** How did the carcinogen call (Species: MOUSE, Strain/Sex: STRAIN-CS/FEMALE, Route: ORAL, Dose: 0.2% IN DIET FOR 19 MO, Tumor Site: Type of Lesion: LIVER: HEPATOCELLULAR CARCINOMA) turn out when `Cc1cccc(Nc2cc(Cl)nc(SCC(=O)NCCO)n2)c1C` was run?
**A.** The carcinogen call was “active; positive”.

**Q.** What about the carcinogen call (Species: RAT, Strain/Sex: F344/MALE, Route: ORAL, Dose: 0.05, 0.2% IN DIET FOR 19 MO (LOW DOSE) OR 16 MO (HIGH DOSE), Tumor Site: Type of Lesion: LIVER: HEPATOCELLULAR CARCINOMA) of the same compound?
**A.** The carcinogen call was “active; positive”.

**Q.** Which results are given for `C=CCOCC1CO1` (centres undefined)?
**A.** carcinogen call (Species: MOUSE, Strain/Sex: B6C3F1/FEMALE, Route: INHALATION, Dose: 0, 5, 10 PPM 6 HR/D 5 D/WK FOR 102 WK (STUDY DURATION: 105 WK), Dose: 0, 5, 10 PPM 6 HR/D 5 D/WK FOR 102 WK (STUDY DURATION: 105 WK), Tumor Site: Type of Lesion: NOSE (RESPIRATORY EPITHELIUM): ADENOMA): equivocal; carcinogen call (Species: MOUSE, Strain/Sex: B6C3F1/MALE, Route: INHALATION, Dose: 0, 5, 10 PPM 6 HR/D 5 D/WK FOR 102 WK (STUDY DURATION: 105 WK), Dose: 0, 5, 10 PPM 6 HR/D 5 D/WK FOR 102 WK (STUDY DURATION: 105 WK), Tumor Site: Type of Lesion: NOSE (RESPIRATORY EPITHELIUM): ADENOMA): active; positive; carcinogen call (Species: RAT, Strain/Sex: OSBORNE-MENDEL/FEMALE, Route: INHALATION, Dose: 0, 5, 10 PPM 6 HR/D 5 D/WK FOR 103 WK (STUDY DURATION: 106 WK), Dose: 0, 5, 10 PPM 6 HR/D 5 D/WK FOR 103 WK (STUDY DURATION: 106 WK)): inactive; negative; carcinogen call (Species: RAT, Strain/Sex: OSBORNE-MENDEL/MALE, Route: INHALATION, Dose: 0, 5, 10 PPM 6 HR/D 5 D/WK FOR 103 WK (STUDY DURATION: 106 WK), Dose: 0, 5, 10 PPM 6 HR/D 5 D/WK FOR 103 WK (STUDY DURATION: 106 WK), Tumor Site: Type of Lesion: NOSE (RESPIRATORY OR OLFACTORY EPITHELIUM): PAPILLARY ADENOMA, SQUAMOUS CELL CARCINOMA, POORLY DIFFERENTIATED ADENOCARCI): equivocal
